# According to ChEMBL document CHEMBL1201862, “PubChem BioAssay data set” (2004):
# The source made the active and inactive calls. Cut-off read from the data, not from the text of the source, for most assays here: actives have a measured EC50 and inactives only a lower limit.
# Key:
# [1] = NIH3T3 cell viability loss – ATP luminescence, mouse fibroblasts, counter-screen, dose response (AID 2010); assay type: functional, cell-based;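 note: cells exposed to compound for about 90 hours before reading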
# [2] = Luminescence Cell-Based Dose Retest to Confirm Inhibitors of Cancer Stem Cells. [Related pubchem assays (depositor defined):AID2717, AID2721]; assay type: functional; conditions: Homo sapiens
# [3] = Trypanosoma cruzi growth suppression in host cells – NIH3T3 host cells, beta-gal luminescence, confirmation (AID 2044); assay type: functional, cell-based;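 note: intracellular parasites grown in NIH/3T3 mouse fibroblasts as host cells; luminescent beta-galactosidase reporter signal from transgenic T. cruzi replicating inside host cells; inhibitors lower the luminescence signal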
# [4] = fluconazole-exposed Candida albicans growth modulators – fluorescence, retest, confirmation (AID 2467); assay type: functional, cell-based
# [5] = NIH-3T3 fibroblast cytotoxicity, dose response, cytotoxicity control, cell-based, fluorescence, Alamar Blue, secondary assay (AID 2327); assay type: functional;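 note: NIH-3T3 mouse fibroblasts cultured with fluconazole at 8 µg/mL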
# [6] = target: T1, Corticotropin-releasing factor receptor 2/Corticotropin-releasing factor-binding protein (Homo sapiens, UniProt P24387+Q13324); test: activators of CRF receptor 2 with binding protein – uHTS hits, confirmation (AID 602473); assay type: functional; conditions: read-out: EC50_Mean
# T1 sequence (Q13324 whole entry): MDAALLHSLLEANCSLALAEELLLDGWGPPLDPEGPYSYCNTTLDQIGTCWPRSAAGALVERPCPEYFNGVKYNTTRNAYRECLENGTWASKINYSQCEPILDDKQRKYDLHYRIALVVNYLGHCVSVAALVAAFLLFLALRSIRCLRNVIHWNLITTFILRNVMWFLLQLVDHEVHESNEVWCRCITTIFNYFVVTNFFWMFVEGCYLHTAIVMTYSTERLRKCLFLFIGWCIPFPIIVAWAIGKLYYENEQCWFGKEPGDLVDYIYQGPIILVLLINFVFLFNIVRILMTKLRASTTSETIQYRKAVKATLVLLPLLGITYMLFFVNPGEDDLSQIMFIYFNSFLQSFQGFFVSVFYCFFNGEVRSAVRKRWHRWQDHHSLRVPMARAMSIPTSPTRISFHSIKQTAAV
# T1 sequence (P24387 whole entry): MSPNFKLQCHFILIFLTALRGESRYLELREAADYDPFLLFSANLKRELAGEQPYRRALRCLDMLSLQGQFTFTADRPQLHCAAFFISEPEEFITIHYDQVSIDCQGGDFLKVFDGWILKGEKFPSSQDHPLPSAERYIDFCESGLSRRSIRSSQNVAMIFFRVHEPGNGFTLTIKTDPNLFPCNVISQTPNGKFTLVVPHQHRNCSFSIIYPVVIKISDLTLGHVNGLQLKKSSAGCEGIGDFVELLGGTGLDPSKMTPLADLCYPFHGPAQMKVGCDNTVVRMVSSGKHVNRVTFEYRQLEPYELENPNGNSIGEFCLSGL
# [7] = target: Luciferin 4-monooxygenase (Photinus pyralis, UniProt P08659); test: inhibition of purified Photinus pyralis luciferase – biochemical, luminescence, dose response (AID 1891)
# Sequence of Luciferin 4-monooxygenase (P08659 whole entry): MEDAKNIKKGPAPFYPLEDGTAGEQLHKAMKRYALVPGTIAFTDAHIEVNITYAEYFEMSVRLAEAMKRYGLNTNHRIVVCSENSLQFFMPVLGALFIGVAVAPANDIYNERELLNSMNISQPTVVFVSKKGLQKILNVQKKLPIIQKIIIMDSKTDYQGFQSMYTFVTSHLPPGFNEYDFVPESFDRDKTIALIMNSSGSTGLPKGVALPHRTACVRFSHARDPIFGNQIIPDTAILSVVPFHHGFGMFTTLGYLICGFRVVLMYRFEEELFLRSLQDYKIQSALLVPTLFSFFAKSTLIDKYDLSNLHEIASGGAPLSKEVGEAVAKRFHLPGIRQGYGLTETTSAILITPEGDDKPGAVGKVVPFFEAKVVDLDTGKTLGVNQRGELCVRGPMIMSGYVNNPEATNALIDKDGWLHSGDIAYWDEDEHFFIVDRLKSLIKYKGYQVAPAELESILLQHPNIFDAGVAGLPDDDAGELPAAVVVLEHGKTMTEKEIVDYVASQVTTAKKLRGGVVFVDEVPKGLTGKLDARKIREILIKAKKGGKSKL
# [8] = Luminescence Cell-Based Dose Confirmation HTS to Identify Inhibitors of Platelet Dense Granule Release. [Related pubchem assays: 1663 (Primary HTS), 1678 (Summary of Project)]; assay type: functional
# Protein RecA = target: T2, Protein RecA (Mycobacterium tuberculosis, UniProt P9WHJ3); test: Fluorescence Cell-Free Homogeneous Dose Retest to Identify Inhibitors of RecA-Intein Splicing Activity. [Related pubchem assays (depositor defined):AID2097, AID2223, AID489010, AID492950]; assay type: functional
# T2 sequence (P9WHJ3 whole entry): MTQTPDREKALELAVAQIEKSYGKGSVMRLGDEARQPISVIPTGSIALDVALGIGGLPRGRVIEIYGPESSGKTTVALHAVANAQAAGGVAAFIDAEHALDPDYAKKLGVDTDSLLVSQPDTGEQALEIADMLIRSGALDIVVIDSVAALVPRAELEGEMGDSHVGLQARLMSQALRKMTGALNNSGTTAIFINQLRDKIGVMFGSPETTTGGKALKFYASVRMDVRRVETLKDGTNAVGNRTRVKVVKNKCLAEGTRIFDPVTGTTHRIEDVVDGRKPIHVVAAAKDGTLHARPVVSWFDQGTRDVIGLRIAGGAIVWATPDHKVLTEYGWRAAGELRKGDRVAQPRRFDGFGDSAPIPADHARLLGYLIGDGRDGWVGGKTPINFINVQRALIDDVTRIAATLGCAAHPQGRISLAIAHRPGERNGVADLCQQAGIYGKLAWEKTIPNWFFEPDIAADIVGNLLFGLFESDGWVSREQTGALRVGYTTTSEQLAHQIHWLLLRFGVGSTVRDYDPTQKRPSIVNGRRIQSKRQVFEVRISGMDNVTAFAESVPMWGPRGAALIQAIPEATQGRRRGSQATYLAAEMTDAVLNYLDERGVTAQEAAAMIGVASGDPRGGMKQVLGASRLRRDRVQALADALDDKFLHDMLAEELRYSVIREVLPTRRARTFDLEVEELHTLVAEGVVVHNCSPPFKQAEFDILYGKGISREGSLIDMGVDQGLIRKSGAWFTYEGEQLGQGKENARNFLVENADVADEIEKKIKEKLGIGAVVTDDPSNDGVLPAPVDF
# [9] = target: T3, Replicative DNA helicase DnaB (Mycobacterium tuberculosis, UniProt P9WMR3); test: DnaB intein splicing inhibitors, dose response, biochemical, cell-free fluorescence (AID 449749); assay type: functional
# T3 sequence (P9WMR3 whole entry): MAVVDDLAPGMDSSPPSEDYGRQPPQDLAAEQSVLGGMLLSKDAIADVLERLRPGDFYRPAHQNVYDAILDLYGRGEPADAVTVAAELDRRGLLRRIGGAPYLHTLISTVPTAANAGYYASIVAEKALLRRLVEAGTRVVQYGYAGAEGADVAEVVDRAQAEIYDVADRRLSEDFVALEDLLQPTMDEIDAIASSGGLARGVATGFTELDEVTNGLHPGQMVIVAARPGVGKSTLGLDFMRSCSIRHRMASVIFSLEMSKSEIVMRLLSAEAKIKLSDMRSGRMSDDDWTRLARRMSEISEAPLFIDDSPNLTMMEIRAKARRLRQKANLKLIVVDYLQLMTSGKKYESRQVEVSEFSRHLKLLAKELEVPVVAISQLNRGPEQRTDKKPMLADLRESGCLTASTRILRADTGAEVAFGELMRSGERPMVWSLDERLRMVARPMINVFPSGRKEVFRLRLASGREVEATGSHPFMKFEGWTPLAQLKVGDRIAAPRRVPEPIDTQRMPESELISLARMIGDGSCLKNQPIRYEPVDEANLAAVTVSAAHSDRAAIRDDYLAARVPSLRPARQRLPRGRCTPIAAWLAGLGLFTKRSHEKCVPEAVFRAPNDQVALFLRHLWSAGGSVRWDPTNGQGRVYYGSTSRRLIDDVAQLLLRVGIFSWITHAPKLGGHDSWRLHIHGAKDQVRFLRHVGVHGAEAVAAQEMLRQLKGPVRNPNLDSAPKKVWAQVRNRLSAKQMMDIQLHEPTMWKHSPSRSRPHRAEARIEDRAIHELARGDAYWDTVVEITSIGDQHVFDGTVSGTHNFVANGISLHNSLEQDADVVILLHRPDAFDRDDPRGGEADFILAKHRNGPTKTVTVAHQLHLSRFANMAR
# [10] = viability of uninfected HEp-2 cells – cell-based, HTS, cytotoxicity control for RSV inhibitor project, dose response (AID 2410); assay type: functional; conditions: human respiratory syncytial virus
# cells [11] = assay type: functional, cell-based
# cells [12] = assay type: functional, cell-based; remark: listed apart in the source
compound,measurement,setting,value
COCCCn1c(SCc2cccc(C(F)(F)F)c2)nc2cc(OC)c(OC)cc2c1=N,EC50,[1],> 60 µM (not active)
same,AC50,[2],4.12 µM (active)
same,EC50,[3],1.92 µM (active)
COc1cc(OC)cc(C(=O)NNC(=O)c2cc3ccccc3cc2O)c1,EC50,[4],> 38 µM (not active)
same,EC50,[5],> 160 µM (inactive)
Cc1ccc(-n2c(-c3cccs3)nc3ccccc3c2=O)cc1,AC50,[2],2 µM (active)
CCOc1ccc(C(=O)Nc2ccc(Cc3ccncc3)cc2)cc1Br,EC50,[4],> 38 µM (not active)
same,EC50,[1],> 60 µM (not active)
same,EC50,[5],> 150 µM (inactive)
same,EC50,[3],1.68 µM (active)
O=C(Nc1ccc(-n2cnnn2)cc1)c1cn2ccccc2n1,EC50,[6],> 53 µM (inactive)
Cc1cccc(NC(=O)CC2SC(=O)N(c3ccccc3)C2=O)c1 (stereo unspecified),EC50,[7],> 112 µM (not active)
same,EC50,[8],> 112 µM (not active)
COCCN(C(=O)CC(C)(C)C)c1nnc(-c2cccnc2)s1,EC50,[7],> 112 µM (not active)
same,EC50,[8],> 112 µM (not active)
Cc1cc(NC(=O)c2ccc3c(c2)OCO3)ccc1NC(=O)c1ccco1,EC50,[7],4.06 µM (active)
same,EC50,[8],12.7 µM (active)
N#CC1(NC(=O)COC(=O)c2cc(O)c3ccccc3c2O)CCCCC1,EC50,Protein RecA,4.28 µM (active)
same,AC50,[9],4.37 µM (active)
same,AC50,[2],6.49 µM (active)
COc1cccc(CNC(=O)N[C@@H](CC(C)C)C(=O)O)c1,EC50,[7],> 112 µM (not active)
same,EC50,[8],> 112 µM (not active)
O=C(/C=C/c1ccc2c(c1)OCO2)Nc1nc(-c2ccccc2)cs1,AC50,[2],0.943 µM (active)
c1ccc(Cn2nnc3c(N4CCC5(CC4)OCCO5)ncnc32)cc1,CC50,[10],29.6 µM (active)
N=C(Cc1ccc(Cl)cc1Cl)NOC(=O)c1ccccc1,EC50,[4],> 38 µM (not active)
same,EC50,[5],> 160 µM (inactive)
CCCCn1c(N)c(N(CC)C(=O)c2cc(OC)cc(OC)c2)c(=O)[nH]c1=O,EC50,cells [11],> 350 µM (not active)
same,EC50,cells [12],> 350 µM (not active)
Cc1ccc(S(=O)(=O)N2[C@@H](c3ccc(C(C)(C)C)cc3)C(C(=O)O)=CC[C@H]2c2cccc(Cl)c2)cc1,AC50,[2],2.86 µM (active)
COc1cccc(C(=O)NCc2ccc3c(c2)cc(C)n3C)c1,EC50,[7],> 112 µM (not active)
same,EC50,[8],21.3 µM (active)
COCCNC(=O)C(c1ccc(C)o1)N(CCOC)C(=O)Cn1nnc2ccccc21 (stereo unspecified),EC50,[4],> 38 µM (not active)
same,EC50,[5],> 150 µM (inactive)
Cc1cccc(C)c1NC(=O)CN(C)C(=O)Cn1c(=O)cnc2ccccc21,EC50,[7],> 112 µM (not active)
same,EC50,[8],> 112 µM (not active)
CCc1cccc2c(-c3cs/c(=N\C)n3C)c[nH]c12,CC50,[10],41.7 µM (active)
